Data taken from ChEMBL document CHEMBL1201862, “PubChem BioAssay data set” (2004).
The source made the active and inactive calls.

Legend:
[1] = molecular target: T1, Aryl hydrocarbon receptor (Homo sapiens, UniProt P35869); assay: Luminescence-based cell-based high throughput dose response assay for activators of the Aryl Hydrocarbon Receptor (AHR). [Related pubchem assays: 2796 (Primary screen (AHR activators in singlicate)), 2845 (Confirmation screen (AHR activators in triplicate)), 434939 (Counterscreen (PXR activators in triplicate)), 2804 (Summary (AHR activators))]; assay type: ADME
T1 sequence (P35869 whole entry): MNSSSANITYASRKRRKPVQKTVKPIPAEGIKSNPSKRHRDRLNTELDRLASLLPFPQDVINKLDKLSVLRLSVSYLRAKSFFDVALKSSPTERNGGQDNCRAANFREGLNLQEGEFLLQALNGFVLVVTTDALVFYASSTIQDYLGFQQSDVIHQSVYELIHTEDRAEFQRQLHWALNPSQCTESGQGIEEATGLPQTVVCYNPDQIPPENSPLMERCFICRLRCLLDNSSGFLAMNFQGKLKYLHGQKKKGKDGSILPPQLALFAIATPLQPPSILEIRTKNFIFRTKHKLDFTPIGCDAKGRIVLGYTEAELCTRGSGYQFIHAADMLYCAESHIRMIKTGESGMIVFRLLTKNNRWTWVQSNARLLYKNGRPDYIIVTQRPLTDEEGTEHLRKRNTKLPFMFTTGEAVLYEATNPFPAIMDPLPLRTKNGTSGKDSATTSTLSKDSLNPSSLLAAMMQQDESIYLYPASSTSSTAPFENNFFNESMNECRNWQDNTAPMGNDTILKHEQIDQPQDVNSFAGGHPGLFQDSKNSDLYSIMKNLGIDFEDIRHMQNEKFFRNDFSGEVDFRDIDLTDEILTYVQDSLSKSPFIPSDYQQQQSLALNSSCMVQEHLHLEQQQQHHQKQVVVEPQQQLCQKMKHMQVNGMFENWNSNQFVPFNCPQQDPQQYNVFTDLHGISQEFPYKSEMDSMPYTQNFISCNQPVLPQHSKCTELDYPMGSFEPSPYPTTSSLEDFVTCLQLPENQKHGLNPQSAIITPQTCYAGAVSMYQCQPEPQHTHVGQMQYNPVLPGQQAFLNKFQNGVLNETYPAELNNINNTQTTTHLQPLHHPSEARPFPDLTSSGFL

Transthyretin = Transthyretin (Homo sapiens, UniProt P02766); assay: Luminescence-based cell-based high throughput dose response assay to identify activators of Transthyretin (TTR) transcription.; assay type: functional
[2] = molecular target: Disintegrin and metalloproteinase domain-containing protein 17 (Homo sapiens, UniProt P78536); assay: inhibition of ADAM17 substrate cleavage – biochemical, quenched FRET substrate, counter-screen for ADAM10 exosite inhibitor project, dose response (AID 743253)
Sequence of Disintegrin and metalloproteinase domain-containing protein 17 (P78536 whole entry, the tested form may be a part): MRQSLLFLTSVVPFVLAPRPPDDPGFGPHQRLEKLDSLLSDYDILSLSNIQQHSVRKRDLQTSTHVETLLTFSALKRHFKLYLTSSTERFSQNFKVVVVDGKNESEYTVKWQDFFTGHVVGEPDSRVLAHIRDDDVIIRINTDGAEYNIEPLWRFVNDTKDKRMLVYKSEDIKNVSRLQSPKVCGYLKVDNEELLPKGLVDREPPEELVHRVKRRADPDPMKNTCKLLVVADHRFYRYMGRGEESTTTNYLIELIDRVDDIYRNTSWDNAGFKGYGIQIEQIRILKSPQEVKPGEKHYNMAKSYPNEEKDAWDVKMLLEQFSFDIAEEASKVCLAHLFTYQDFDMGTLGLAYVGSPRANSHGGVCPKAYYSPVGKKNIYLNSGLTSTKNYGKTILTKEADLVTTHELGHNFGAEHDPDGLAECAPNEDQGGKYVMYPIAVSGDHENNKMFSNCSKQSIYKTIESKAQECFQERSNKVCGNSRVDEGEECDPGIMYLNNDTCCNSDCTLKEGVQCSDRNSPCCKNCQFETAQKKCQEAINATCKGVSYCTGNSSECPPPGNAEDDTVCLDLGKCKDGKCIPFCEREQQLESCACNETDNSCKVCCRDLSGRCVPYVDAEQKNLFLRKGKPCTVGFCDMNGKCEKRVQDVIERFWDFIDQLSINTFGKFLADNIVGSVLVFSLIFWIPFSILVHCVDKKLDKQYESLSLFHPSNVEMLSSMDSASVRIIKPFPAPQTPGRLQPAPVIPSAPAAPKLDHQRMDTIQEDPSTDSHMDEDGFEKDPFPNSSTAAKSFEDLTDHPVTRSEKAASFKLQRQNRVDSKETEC

[3] = potency of ADAM10 substrate cleavage blockers – biochemical, QFRET, dose response (AID 743254);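 note: ADAM10 enzyme with the DM2 quenched FRET peptide as substrate; EDANS fluorescence gain as the protease cuts the substrate; inhibitor potency against ADAM10 proteolytic activity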
fMet-Leu-Phe receptor = fMet-Leu-Phe receptor (Homo sapiens, UniProt P21462); assay: formyl peptide receptor binders – dose response (AID 519); assay type: functional
Sequence of fMet-Leu-Phe receptor (P21462 whole entry): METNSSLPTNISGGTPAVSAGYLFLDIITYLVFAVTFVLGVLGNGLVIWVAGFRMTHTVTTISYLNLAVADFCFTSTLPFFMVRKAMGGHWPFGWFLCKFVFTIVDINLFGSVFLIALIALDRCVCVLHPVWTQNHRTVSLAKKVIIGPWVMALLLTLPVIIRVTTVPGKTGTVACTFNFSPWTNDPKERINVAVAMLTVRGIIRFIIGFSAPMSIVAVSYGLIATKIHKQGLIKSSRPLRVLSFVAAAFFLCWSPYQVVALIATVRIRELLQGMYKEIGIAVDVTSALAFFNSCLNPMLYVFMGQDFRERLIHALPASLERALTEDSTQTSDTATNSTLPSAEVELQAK

[4] = NIH3T3 cell viability loss – ATP luminescence, mouse fibroblasts, counter-screen, dose response (AID 2010); assay type: functional, cell-based;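 note: cells exposed to compound for about 90 hours before reading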
[5] = Trypanosoma cruzi growth suppression in host cells – NIH3T3 host cells, beta-gal luminescence, confirmation (AID 2044); assay type: functional, cell-based;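 note: intracellular parasites grown in NIH/3T3 mouse fibroblasts as host cells; luminescent beta-galactosidase reporter signal from transgenic T. cruzi replicating inside host cells; inhibitors lower the luminescence signal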
[6] = molecular target: T2, Oxysterols receptor LXR-beta (Homo sapiens, UniProt P55055); assay type: functional, cell-based;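 note: agonist activity at LXR measured by a cell-based luminescence readout across a dose range, run as a counterscreen for daf-12 agonists; HEK293 cells with Gal4-LXR fusion and GAL4-driven luciferase reporter; potency for activation of Gal4-LXR reporter so compounds are agonists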
T2 sequence (P55055 whole entry): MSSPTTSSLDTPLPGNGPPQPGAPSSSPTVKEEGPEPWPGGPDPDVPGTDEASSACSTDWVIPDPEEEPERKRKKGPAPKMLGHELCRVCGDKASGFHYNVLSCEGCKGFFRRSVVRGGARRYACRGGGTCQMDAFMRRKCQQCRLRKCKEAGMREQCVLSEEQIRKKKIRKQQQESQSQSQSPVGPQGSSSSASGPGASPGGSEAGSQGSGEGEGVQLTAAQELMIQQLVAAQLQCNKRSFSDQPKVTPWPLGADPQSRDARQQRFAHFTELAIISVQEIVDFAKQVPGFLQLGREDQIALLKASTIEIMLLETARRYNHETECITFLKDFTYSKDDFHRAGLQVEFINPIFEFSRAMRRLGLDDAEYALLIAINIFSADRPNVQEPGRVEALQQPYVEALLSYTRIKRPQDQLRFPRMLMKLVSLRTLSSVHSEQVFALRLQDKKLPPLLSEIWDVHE

[7] = HEK293 Cytotoxicity Assay Measured in Cell-Based System Using Plate Reader - 7071-01_Inhibitor_Dose_CherryPick_Activity_Set2.; assay type: functional
HEK293 = assay: viability loss in HEK293T cells – cell-based, ATP luminescence, cherry-pick samples, cytotoxicity control, dose response (AID 687005); assay type: functional; conditions: Homo sapiens;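 note: cells exposed to compound for 48 hours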
[8] = microbe, parasite or virus in culture; assay type: functional; conditions: Mycobacterium tuberculosis
Nonstructural protein 1 = Nonstructural protein 1 (Influenza A virus, UniProt Q194T2); assay type: functional, Influenza A virus (A/California/07/2009(H1N1))
Sequence of Nonstructural protein 1 (Q194T2 whole entry): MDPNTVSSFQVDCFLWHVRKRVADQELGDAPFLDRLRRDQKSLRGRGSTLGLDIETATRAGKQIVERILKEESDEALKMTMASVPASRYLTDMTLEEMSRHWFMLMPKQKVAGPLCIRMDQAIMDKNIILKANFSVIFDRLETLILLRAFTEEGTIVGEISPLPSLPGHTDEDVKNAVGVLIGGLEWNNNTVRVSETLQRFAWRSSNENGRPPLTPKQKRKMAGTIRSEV

[9] = HGIII-sPLA2 enzyme inhibition potency – biochemical, QFRET, IC50, dose response (AID 743457);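 note: green fluorescence rise as the enzyme cleaves BODIPY PC-A2 in liposomes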
[10] = molecular target: 1-phosphatidylinositol 4,5-bisphosphate phosphodiesterase beta-3 (Homo sapiens, UniProt Q01970); assay: Fluorescence-based biochemical high throughput dose response assay to identify inhibitors of phospholipase C isozymes (PLC-B3).
Sequence of 1-phosphatidylinositol 4,5-bisphosphate phosphodiesterase beta-3 (Q01970 whole entry): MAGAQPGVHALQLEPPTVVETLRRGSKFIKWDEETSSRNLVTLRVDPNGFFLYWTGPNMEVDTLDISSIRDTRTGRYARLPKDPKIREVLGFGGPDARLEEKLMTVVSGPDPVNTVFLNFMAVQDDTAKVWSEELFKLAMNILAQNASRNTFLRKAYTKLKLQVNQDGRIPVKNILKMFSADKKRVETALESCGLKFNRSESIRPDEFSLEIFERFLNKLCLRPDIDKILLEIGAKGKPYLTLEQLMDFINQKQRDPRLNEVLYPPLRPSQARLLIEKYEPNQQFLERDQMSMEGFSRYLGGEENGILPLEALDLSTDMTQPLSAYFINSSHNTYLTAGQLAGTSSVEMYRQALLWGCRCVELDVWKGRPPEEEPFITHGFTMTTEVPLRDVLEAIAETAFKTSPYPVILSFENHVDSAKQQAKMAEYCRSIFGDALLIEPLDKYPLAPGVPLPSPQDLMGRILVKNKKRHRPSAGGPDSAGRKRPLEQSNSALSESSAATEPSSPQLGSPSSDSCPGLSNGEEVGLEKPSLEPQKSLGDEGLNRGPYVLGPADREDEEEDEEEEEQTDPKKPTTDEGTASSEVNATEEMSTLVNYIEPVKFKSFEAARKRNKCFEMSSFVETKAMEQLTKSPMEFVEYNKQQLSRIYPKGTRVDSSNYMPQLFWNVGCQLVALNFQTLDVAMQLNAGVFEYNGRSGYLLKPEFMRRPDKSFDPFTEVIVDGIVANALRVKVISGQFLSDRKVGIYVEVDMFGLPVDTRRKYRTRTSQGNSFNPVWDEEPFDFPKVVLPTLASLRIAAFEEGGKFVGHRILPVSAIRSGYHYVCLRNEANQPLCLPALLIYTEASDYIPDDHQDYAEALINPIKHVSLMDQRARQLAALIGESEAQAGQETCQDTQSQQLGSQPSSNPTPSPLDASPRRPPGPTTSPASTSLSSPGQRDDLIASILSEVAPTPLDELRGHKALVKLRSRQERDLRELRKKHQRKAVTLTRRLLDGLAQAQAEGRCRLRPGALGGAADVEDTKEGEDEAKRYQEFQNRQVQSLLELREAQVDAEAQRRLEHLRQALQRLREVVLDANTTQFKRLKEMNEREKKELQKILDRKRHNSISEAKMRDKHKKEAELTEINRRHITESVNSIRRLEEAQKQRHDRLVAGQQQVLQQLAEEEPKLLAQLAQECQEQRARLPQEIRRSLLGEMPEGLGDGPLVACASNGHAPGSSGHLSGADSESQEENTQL

[11] = molecular target: 1-phosphatidylinositol 4,5-bisphosphate phosphodiesterase gamma-1 (Homo sapiens, UniProt P19174); assay: Counterscreen for inhibitors of phospholipase C isozymes (PLC-B3): Fluorescence-based biochemical high throughput dose response assay to identify inhibitors of phospholipase C isozymes (PLC-gamma1).
Sequence of 1-phosphatidylinositol 4,5-bisphosphate phosphodiesterase gamma-1 (P19174 whole entry): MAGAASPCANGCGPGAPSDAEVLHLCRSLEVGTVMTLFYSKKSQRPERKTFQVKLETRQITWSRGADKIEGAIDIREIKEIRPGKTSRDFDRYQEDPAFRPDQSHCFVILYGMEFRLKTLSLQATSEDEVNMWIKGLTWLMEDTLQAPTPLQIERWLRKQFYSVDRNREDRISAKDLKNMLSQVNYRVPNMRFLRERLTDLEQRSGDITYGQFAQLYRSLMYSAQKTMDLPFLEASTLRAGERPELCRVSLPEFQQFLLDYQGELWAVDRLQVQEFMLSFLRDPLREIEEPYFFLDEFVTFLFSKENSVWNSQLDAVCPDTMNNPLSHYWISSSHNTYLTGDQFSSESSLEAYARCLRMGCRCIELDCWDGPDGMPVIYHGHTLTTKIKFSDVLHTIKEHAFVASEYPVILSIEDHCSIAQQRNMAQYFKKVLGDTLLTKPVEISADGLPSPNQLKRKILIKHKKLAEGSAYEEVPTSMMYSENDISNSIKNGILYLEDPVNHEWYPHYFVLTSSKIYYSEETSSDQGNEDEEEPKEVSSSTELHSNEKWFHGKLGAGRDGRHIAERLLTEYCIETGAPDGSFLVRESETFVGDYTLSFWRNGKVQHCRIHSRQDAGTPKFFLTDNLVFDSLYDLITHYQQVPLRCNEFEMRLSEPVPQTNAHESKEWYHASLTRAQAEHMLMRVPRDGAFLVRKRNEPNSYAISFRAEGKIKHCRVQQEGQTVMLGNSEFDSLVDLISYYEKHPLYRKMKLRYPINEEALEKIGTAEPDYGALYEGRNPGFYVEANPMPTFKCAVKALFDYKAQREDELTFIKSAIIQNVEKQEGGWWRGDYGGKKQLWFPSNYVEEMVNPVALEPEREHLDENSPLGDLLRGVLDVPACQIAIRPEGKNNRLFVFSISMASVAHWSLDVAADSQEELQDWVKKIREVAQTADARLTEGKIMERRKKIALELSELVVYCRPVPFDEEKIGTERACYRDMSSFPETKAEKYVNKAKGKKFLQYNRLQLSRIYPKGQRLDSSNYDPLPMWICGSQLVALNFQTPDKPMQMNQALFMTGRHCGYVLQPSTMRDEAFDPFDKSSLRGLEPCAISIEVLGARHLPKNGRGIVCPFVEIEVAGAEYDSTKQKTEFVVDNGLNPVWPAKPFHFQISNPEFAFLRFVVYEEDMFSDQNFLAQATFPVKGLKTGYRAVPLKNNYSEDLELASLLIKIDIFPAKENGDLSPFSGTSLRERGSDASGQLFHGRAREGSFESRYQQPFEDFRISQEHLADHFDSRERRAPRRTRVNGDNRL

[12] = viability loss in HepG2 hepatoma cells – cell-based, cherry-picks, set 5, cytotoxicity control, dose response (AID 1053118); assay type: functional
[13] = viability loss in HEK293 kidney cells – cell-based, cherry-picks, set 5, cytotoxicity control, dose response (AID 1053117); assay type: functional
BJ [14] = assay: BJ-TERT fibroblast viability loss – cell-based, RAS-independent, luminescence, dose response (AID 1933); assay type: functional; conditions: Homo sapiens
[15] = luciferase reporter signal suppression in cells – H4 neuroglioma cells, luminescence, dose response (AID 1990); assay type: functional, cell-based
Vero [16] = assay: mammalian cell viability reduction – secondary assay, cytotoxicity control for West Nile virus antiviral project, dose response (AID 1650); assay type: functional; conditions: Chlorocebus sabaeus
[17] = DRD fibroblast viability loss – cell-based, non-viral oncogenic, luminescence, dose response (AID 1934); assay type: functional; conditions: Homo sapiens
BJ [18] = assay: cells; assay type: functional, cell-based; conditions: Homo sapiens
[19] = Luminescence Cell-Based Dose Response HTS to Identify Inhibitors of 5'UTR Stem-Loop Driven Prion Protein mRNA Translation in H4 Neuroglioblastoma Cells. [Related pubchem assays: 1827 (Project Summary), 1813 (Primary HTS)]; assay type: functional
BJ [20] = assay: BJ-TERT-LT-ST fibroblast viability loss – cell-based, RAS-independent, luminescence, dose response (AID 1935); assay type: functional; conditions: Homo sapiens;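 note: BJ fibroblasts immortalized with TERT plus LT and ST oncogenes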
[21] = alpha-synuclein stem-loop luciferase translation blockers – H4 neuroglioma cells, luminescence, confirmation (AID 1988); assay type: functional, cell-based
[22] = MIN6 cell viability loss – mouse insulinoma, cytotoxicity control, dose response (AID 2122); assay type: functional;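 note: confirmatory high-throughput counterscreen run to flag cytotoxic compounds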
[23] = reduced cellular PGC1a acetyl-lysine signal – cell-based, cherry-picked samples, dose response (AID 720514); assay type: functional;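 note: potency may reflect raised or lowered acetylation signal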
[24] = molecular target: T3, Heat shock factor protein 1 (Mus musculus, UniProt P38532); assay: enhancement of HSF1-driven luciferase signal – cell-based, NIH3T3, luminescence, dose retest, confirmation (AID 435004); assay type: functional;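 note: stress induced by proteasome inhibitor MG132 added 30 min after compound; luciferase reporter driven by HSF1 response element in NIH3T3 cells; actives raise luminescence as potentiators of the MG132 stress response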
T3 sequence (P38532 whole entry): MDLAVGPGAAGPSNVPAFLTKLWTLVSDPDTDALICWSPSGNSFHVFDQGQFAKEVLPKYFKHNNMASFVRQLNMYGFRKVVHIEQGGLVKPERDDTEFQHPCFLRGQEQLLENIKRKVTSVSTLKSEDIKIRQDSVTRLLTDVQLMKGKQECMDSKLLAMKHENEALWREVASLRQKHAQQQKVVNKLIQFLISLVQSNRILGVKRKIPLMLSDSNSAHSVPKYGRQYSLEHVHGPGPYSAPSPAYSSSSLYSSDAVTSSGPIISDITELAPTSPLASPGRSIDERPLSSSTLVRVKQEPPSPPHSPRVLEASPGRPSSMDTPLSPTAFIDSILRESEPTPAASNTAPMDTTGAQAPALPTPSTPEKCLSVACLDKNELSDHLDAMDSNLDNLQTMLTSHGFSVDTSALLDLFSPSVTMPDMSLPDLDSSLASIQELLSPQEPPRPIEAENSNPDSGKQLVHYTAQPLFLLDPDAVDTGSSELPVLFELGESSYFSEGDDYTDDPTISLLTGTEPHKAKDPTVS

[25] = decrease of insulin promoter-GFP reporter – imaging, high-content screening, mouse beta cells (AID 1628); assay type: functional; conditions: MIN6
Vero [26] = assay: cells; assay type: functional, cell-based; conditions: Chlorocebus sabaeus
Vero [27] = assay: cells; assay type: functional; conditions: Chlorocebus sabaeus

Cc1ccc2c(c1)c1nc3ccccc3nc1n2C
EC50 [1]: 1 µM (active)

CCOc1ccc(NC2=NC(=O)S/C2=C\c2ccc(O)cc2)cc1
EC50 (Transthyretin): > 167 µM (inactive)

O=C(COC(=O)c1ccc(Cl)c(S(=O)(=O)N2CCCCCC2)c1)Nc1ccccc1
IC50 [2]: > 69.5 µM (inactive) | IC50 [3]: > 69.5 µM (inactive)

CCOC(=O)Cc1cc(O)n2nc(C)c(-c3ccc(Cl)cc3)c2n1
Ki (fMet-Leu-Phe receptor): 19 µM (inactive)

CN(C)CC#CCC(O)(c1ccccc1)C1CCCC1 (stereo unspecified)
EC50 [4]: > 60 µM (not active) | EC50 [5]: < 0.1 µM (active) | EC50 (cells): 0.016 µM (active)

Cc1c(C(=O)OC2CCC(C)CC2)[nH]c2c1C(=O)CCC2 (stereo unspecified)
EC50 [6]: > 67.5 µM (inactive)

O=C(N/N=C/c1ccc(-c2ccccc2[N+](=O)[O-])o1)c1cncc(Br)c1
EC50 [1]: 6.71 µM (active)

S=C(Nc1cccc(Cl)c1)Nc1ccccc1Oc1ccccc1
AC50 [7]: 23.5 µM (active) | AC50 (HEK293): 23.5 µM (active)

CC(C)C1C(=O)N(Cc2cn(CC3CCCCC3)nn2)CCS(=O)(=O)N1Cc1ccc(-c2ccccc2)cc1 (stereo unspecified)
IC50 [2]: > 69.5 µM (inactive) | IC50 [3]: 10.2 µM (inactive)

Cc1cc(C)c(C)c(N=Nc2nc3ccccc3n2C)c1C
CC50 [8]: > 40 µM (active) | IC50 (Nonstructural protein 1): 17.6 µM (active) | IC50 [9]: > 122 µM (inactive)

CN(C)CCN(C(=O)c1ccc(S(=O)(=O)N2CCc3ccccc32)cc1)c1nc2ccc(F)cc2s1
EC50 [4]: > 60 µM (not active) | EC50 [5]: < 0.1 µM (active) | EC50 (cells): 0.188 µM (active)

O=c1[nH]c2ccccc2c(=O)n1-c1ccc(Cl)cc1Cl
IC50 [10]: > 122 µM (inactive) | IC50 [11]: > 122 µM (inactive)

C[C@@H]1CN([C@@H](C)CO)C(=O)c2cc(NS(=O)(=O)c3ccc(F)cc3)ccc2O[C@@H](C)CCCCO[C@@H]1CN(C)Cc1ccc2c(c1)OCO2
AC50 [7]: 28.3 µM (active) | AC50 (HEK293): 28.3 µM (active)

COC(=O)C(Cc1ccc(O)cc1)NC(=O)C(C)NC(=O)c1ccc(C(C)(C)C)cc1 (stereo unspecified)
IC50 [10]: > 123 µM (inactive) | IC50 [11]: > 123 µM (inactive)

CO[C@H]1CN(C)C(=O)c2cc(NC(=O)Nc3cc(Cl)cc(Cl)c3)ccc2OC[C@@H](C)NC[C@H]1C
AC50 [12]: 42.6 µM (active) | AC50 [13]: > 52 µM (inactive)

O=c1[nH]cnc2cc(-c3ccccc3)sc12
EC50 [6]: > 67.5 µM (inactive)

Cn1c(Cl)cnc1C1CC(=O)c2cc(Cl)ccc2O1 (stereo unspecified)
EC50 (BJ [14]): 8.07 µM (active) | EC50 [15]: 10.9 µM (active) | CC50 (Vero [16]): 17.9 µM (active) | EC50 [17]: 7.73 µM (active) | EC50 (BJ [18]): 8.32 µM (inconclusive) | EC50 [19]: 10.1 µM (active) | EC50 (BJ [20]): 7.45 µM (inconclusive) | EC50 [21]: > 120 µM (not active) | IC50 [22]: 1.98 µM (active) | AC50 [23]: 16.9 µM (active) | EC50 [24]: 38.8 µM (active) | IC50 [25]: 2.95 µM (active)

CC(=O)c1cc(C(C)=O)c(C)nc1C
EC50 (Transthyretin): > 167 µM (inactive)

Cc1nc2ccccn2c1C(=O)/C=C/c1ccc(F)cc1
IC50 (Vero [26]): > 25 µM (active) | CC50 (Vero [16]): 25.6 µM (active) | AC50 [23]: 0.76 µM (active) | CC50 (Vero [27]): 18.7 µM (active)
